Ki data for 6 compounds are collected here from ChEMBL document CHEMBL1147919, “Syntheses and binding affinities of 6-nitroquipazine analogues for serotonin transporter. Part 5: 2'-Substituted 6-nitroquipazines” (Bioorg Med Chem, 2007).

The experiment deals with Sodium-dependent serotonin transporter (Rattus norvegicus, UniProt P31652). Briefly: Displacement of [3H]citalopram from Sprague-Dawley rat SERT. For orientation: In a radioligand displacement assay an active substance lowers the binding of a labelled ligand.
Chain of Sodium-dependent serotonin transporter (P31652 whole entry): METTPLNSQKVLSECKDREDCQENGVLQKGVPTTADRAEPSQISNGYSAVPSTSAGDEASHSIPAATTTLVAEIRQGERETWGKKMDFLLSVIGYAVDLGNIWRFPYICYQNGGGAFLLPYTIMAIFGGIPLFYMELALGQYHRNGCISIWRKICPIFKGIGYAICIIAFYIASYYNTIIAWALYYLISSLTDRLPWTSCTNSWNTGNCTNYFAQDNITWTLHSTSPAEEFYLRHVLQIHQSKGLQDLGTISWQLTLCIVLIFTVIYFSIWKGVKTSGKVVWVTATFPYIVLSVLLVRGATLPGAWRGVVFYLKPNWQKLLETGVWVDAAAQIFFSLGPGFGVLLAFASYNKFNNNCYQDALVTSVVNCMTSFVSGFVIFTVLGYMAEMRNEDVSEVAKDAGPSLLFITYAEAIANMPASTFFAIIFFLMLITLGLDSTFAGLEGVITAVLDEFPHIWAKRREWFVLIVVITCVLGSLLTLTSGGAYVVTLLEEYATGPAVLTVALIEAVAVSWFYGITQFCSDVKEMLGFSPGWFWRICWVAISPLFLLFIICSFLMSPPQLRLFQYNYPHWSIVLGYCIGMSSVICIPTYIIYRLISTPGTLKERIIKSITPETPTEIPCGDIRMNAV
A word on the Ki: it is the dissociation constant of the complex between target and ligand, obtained from inhibition or displacement. A higher Ki goes with lower affinity. `COCC1CNCCN1c1ccc2cc([N+](=O)[O-])ccc2n1` (stereo unspecified) displayed a Ki of 0.68 nM.

`CCCOCC1CNCCN1c1ccc2cc([N+](=O)[O-])ccc2n1` (stereo unspecified) returned a Ki of 5.67 nM.

`CCOCC1CNCCN1c1ccc2cc([N+](=O)[O-])ccc2n1` (stereo unspecified) displayed an inhibition constant (Ki) of 0.43 nM.

In turn, `CCCCOCC1CNCCN1c1ccc2cc([N+](=O)[O-])ccc2n1` (stereo unspecified) had a Ki of 15.4 nM. Compared with the last compound, the Ki is about 36-fold higher.

In the case of `O=[N+]([O-])c1ccc2nc(N3CCNCC3CO)ccc2c1` (stereo unspecified), the Ki turned out to be 0.43 nM.

`O=[N+]([O-])c1ccc2nc(N3CCNCC3)ccc2c1` [6-NITROQUIPAZINE] showed a Ki of 0.24 nM.
